{
  "source": "patent EP0385952A2",
  "about": "“Use of a naphthalenmethanamino derivative as antiinflammatory agent and pharmaceutical compositions containing it” (SANDOZ AG, priority 1989, dated 1990)",
  "type_in_all_cases": "in vivo",
  "key": {"NMRI mice [1]": {"system": "NMRI mice", "test": "Arachidonic acid-induced pinnal swelling in mice (irritant contact dermatitis, 2.1.1.)", "settings": "prophylactic, epicutaneous, pinnal weight", "method": "(§1) Skin irritation with arachidonic acid or cantharidin is often used to experimentally induce inflammation in order to evaluate the anti-inflammatory activity of a compound [see e.g. Inflammation 8 (1984) 134-135; 10 (1986) 205-214]. NMRI mice (8 animals per group) receive 10 µl of a 10 % solution of arachidonic acid [J.M. Young et al., J. Invest. Derm. 82 (1986) 367-371] in acetone or, respectively, 0.08 % cantharidin [K.E. Swingle et al., Arch. Int. Pharmacodyn. Ther. 254 (1981) 168-176] in acetone applied to the medial and lateral surface of the right external ear. Treatment is performed either prophylactically 30 minutes before irritation (arachidonic acid) or, respectively, either simultaneously with the application of irritant solution or therapeutically 20 minutes after irritation (cantharidin), by a single epicutaneous application of the test compound dissolved in a mixture of N,N-dimethylacetamide, acetone and alcohol (2:2:4). The evaluation of the test group is effected by comparison with a control group of animals having received on the right ear lobe only the carrier substance or the irritant solution. The animals are killed 1.5 hours (arachidonic acid) or, respectively, 17 hours (cantharidin) after application of the irritant and efficacy in assessed by determination of the differences in auricular weight. Differences in weights (D) of right (involved) and left (uninvolved) pinnae of animals treated with test compound and arachidonic acid or cantharidin (T-group) are compared with differences in mice treated with arachidonic acid only or cantharidin only (C-group). Efficacy (%) is calculated according to the equation: [formula]"}, "NMRI mice [2]": {"system": "NMRI mice", "test": "Cantharidin-induced pinnal swelling in mice (irritant contact dermatitis, 2.1.1.)", "settings": "epicutaneous, pinnal weight", "method": "as §1"}, "mice [3]": {"system": "mice", "test": "TPA-induced pinnal swelling in mice (irritant contact dermatitis, 2.1.2.)", "settings": "therapeutic, topical, pinnal weight after 6 hours", "method": "as §1\n(§2) This model is similar to the above (see 2.1.1.). Skin inflammation is induced with 15 µl of 0.23 % croton oil in a mixture of dimethylacetamide, acetone and ethanol (2:4:4), or with 10 µl of 0.005 % TPA [12-O-tetradecanoylphorbol-13-acetate; Sigma] prepared in acetone with 0.5 % dimethylsulfoxide. Topical treatment is performed either simultaneously with the irritation (croton oil) or 20 minutes after the application (TPA). The test compound is prepared in DAE. Efficacy is assessed 6 hours after onset of irritation by determination of the auricular weight as described above."}, "guinea pigs": {"system": "guinea pigs", "test": "UV-erythema model (2.2.)", "settings": "therapeutic, test concentration 5.0 %, topical, erythema score", "method": "Female guinea pigs weighing 250-300 g are used. On the day before experiment they are shorn on both flanks followed by a final dry shaving without skin irritation two hours before UV exposure. Two circular areas (10 mm diameter) on each flank are exposed 10 seconds to ultraviolet rays from […] at an intensity of 16 mW/cm² (UVA) and 500 mW/cm² (UVB). Drugs are administered topically immediately after exposure to UV light in a volume of 50 µl of 25 % ethanol and 75 %polyethylenglycol-400 to the irradiated skin areas on the right flank. Two areas on the left flank serve as vehicle control. Erythema is assessed visually 3.5 and 5.5 hours after irradiation and results expressed in scores. Changes in erythema intensity after drug administration are expressed as percentages of the scored erythema intensity in vehicle-treated areas."}, "mice [4]": {"system": "mice", "test": "Croton oil-induced pinnal swelling in mice (irritant contact dermatitis, 2.1.2.)", "settings": "simultaneous, topical, pinnal weight after 6 hours", "method": "as §1, §2"}},
  "note": "Marks after values point to notes of the source that are not given here.",
  "data": [
    {"smiles": "CCCCOc1ccc(CC(=O)NO)cc1", "note": "[Bufexamac, 2-[p-(n-butyloxy)phenyl]-acetohydroxamic acid, reference compound]", "values": [
      {"measurement": "Efficacy (%)", "setting": "NMRI mice [1]; test concentration 1.2 %", "value": "35* %"},
      {"measurement": "Efficacy (%)", "setting": "NMRI mice [1]; test concentration 3.6 %", "value": "22* %"},
      {"measurement": "Efficacy (%)", "setting": "NMRI mice [2]; simultaneous, test concentration 1.2 %", "value": 36, "unit": "%"},
      {"measurement": "Efficacy (%)", "setting": "NMRI mice [2]; simultaneous, test concentration 3.6 %", "value": 29, "unit": "%"},
      {"measurement": "Efficacy (%)", "setting": "NMRI mice [2]; therapeutic, test concentration 1.2 %", "value": 22, "unit": "%"},
      {"measurement": "Efficacy (%)", "setting": "NMRI mice [2]; therapeutic, test concentration 3.6 %", "value": 14, "unit": "%"},
      {"measurement": "Efficacy (%)", "setting": "mice [3]; test concentration 1.2 %", "value": 1, "unit": "%"},
      {"measurement": "Efficacy (%)", "setting": "mice [3]; test concentration 3.6 %", "value": 2, "unit": "%"},
      {"measurement": "Efficacy (%)", "setting": "guinea pigs", "value": 8, "unit": "%"},
      {"measurement": "Efficacy (%)", "setting": "mice [4]; test concentration 1.2 %", "value": 11, "unit": "%"},
      {"measurement": "Efficacy (%)", "setting": "mice [4]; test concentration 3.6 %", "value": "36** %"}
    ]}
  ]
}
